Legend:
NS3a in NIH3T3 cells = experiment: Confocal microscopy for colocalization analysis (fixed cells); type: cell-based; settings: 5 μM drug
CXCR4 = experiment: dCas9 transcription control, immunofluorescence FACS; type: cell-based, human; settings: CXCR4 and CD95
NS3a inactive = experiment: ANR-GST pulldown with immobilized biotinylated NS3a; type: binding, hepatitis C virus; settings: 10 μM danoprevir, 5 μM ANR-GST
Description: Pierce high-capacity streptavidin beads (Thermo-Fisher #P120359) were prepared by washing three times with Buffer PDA (TBS+0.05% tween+0.5 mg/mL BSA). For each condition and each replicate, beads were washed and incubated separately. The wash was performed by adding 200 μL Buffer PDA to 30 μL of a 50/50 bead slurry, inverting to mix, and spinning down (2500×g for 2 min). The supernatant was removed by pipetting, and the wash was repeated two more times to end with a 50/50 slurry of beads in wash buffer.
Purified biotinylated NS3a was prepared at a 50× final concentration and 10 μL were added to a 490 μL 50/50 slurry of streptavidin beads and Buffer PD for final NS3a concentration of 125 nM. Beads were incubated and rotated at 4° C. After one hour, beads were harvested and washed three times as described previously, ending in a 50/50 bead/buffer slurry. ANR was added to all samples at a final concentration of 5 μM. For the danoprevir treated samples, danoprevir was added to a final concentration of 10 μM. Buffer PD was added to a final volume of 500 μL, and the beads were incubated and rotated at 4° C. After 1 hour, beads were pelleted and washed three times in Buffer FDB (TBS buffer+0.05% Tween) with 5 minute incubations between washes on a rotator at 4° C. To obtain final bound protein, beads were pelleted and supernatant was aspirated, resulting in a final volume of beads of 20 μL. […]

CC(C)(C)OC(=O)N[C@H]1CCCCC/C=C\[C@@H]2C[C@@]2(C(=O)NS(=O)(=O)C2CC2)NC(=O)[C@@H]2C[C@@H](OC(=O)N3Cc4cccc(F)c4C3)CN2C1=O [danoprevir]
Colocalization of DNCR2-EGFP and GNCR1-BFP with NS3a-mCherry-CAAX (NS3a in NIH3T3 cells): DNCR2/NS3a colocalization | Localization of NS3a-mCherry with Tom20-BFP-ANR and DNCR2-EGFP-CAAX (NS3a in NIH3T3 cells): moved to the plasma membrane | Colocalization of NS3a-mCherry with ANR-BFP-CAAX or NLS-DNCR2-EGFP (NS3a in NIH3T3 cells; 15 min): recruited NS3a to the nucleus with NLS-DNCR2-EGFP | Colocalization of NS3a-mCherry with GNCR1-BFP-CAAX or Tom20-DNCR2-EGFP (NS3a in NIH3T3 cells; 15 min): led to colocalization with mitochondria-targeted Tom20-DNCR2-EGFP | effect on gene expression in the absence of the guide RNA (CXCR4): no effect | pull down of ANR-GST by immobilized NS3a inactive (NS3a inactive): inhibits the ability of immobilized NS3a inactive to pull down ANR-GST

Reference: patent US20220025003A1, “REAGENTS AND METHODS FOR CONTROLLING PROTEIN FUNCTION AND INTERACTION” (University of Washington, priority 2018, published 2022)
